From patent US5112834A, “Imidazole protectorant for the stomach and intestine” (BYK Gulden Lomberg Chemische Fabrik GmbH, priority 1987, dated 1992)
Like-named read-outs stand apart in the source and are kept apart here.

Tested on: modified Shay rat
Assay: Antiulcerogenic and secretion-inhibiting action on the modified Shay rat (pylorus ligature plus oral acetylsalicylic acid)
Format: in vivo
Conditions: for Inhibition of acid secretion: Reduction in HCl secretion / Protective action on stomach: Reduction in lesion index: 4 hours; for ED50: Rattus norvegicus, 4 h, i.d.
Protocol: Ulcers are provoked in rats which have fasted for 24 hours (female, 180-200 g, 4 animals per cage on high grid) by pylorus ligature (under diethyl ether anaesthesia) and oral administration of 100 mg/10 ml/kg acetylsalicylic acid. The substances to be tested are administered intraduodenally (2,5 ml/kg) immediately following t[e pylorus ligature. The wound is closed by means of Michel clamps. 4 hours later, the animals are sacrificed under ether anaesthesia by atlas dislocation and the stomach is resected. The stomach is opened along the greater curvature and clamped on a cork sheet after first determining the amount of secreted gastric juice (volume) and subsequently its HCl content (titration with sodium hydroxide solution). Using a stereomicroscope at 10×magnification, the number and size (=diameter) of ulcers present are determined. The product of severity (according to the scale of points below) and number of ulcers serves as an individual lesion index. |Scale of points: | No ulcers 0 | Ulcer diameter | 0.1-1.4 mm | 1 | 1.5-2.4 mm | 2 | 2.5-3.4 mm | 3 | 3.5-4.4 mm | 4 | 4.5-5.4 mm | 5 | >5.5 mm 6 The reduction in the mean lesion index of each treated group compared with the control group (=100%) serves as a measure of the antiulcerogenic effect. The ED50 designates the dose which reduces the mean lesion index or the HCl secretion by 50% compared with the control.

[1] = 0.3 μmol/kg i.d. (intraduodenal)
[2] = 0.6 μmol/kg i.d. (intraduodenal)
[3] = 1.0 μmol/kg i.d. (intraduodenal)
[4] = 1.5 μmol/kg i.d. (intraduodenal)
[5] = 2.0 μmol/kg i.d. (intraduodenal)
[6] = 3.0 μmol/kg i.d. (intraduodenal)
[7] = 6.0 μmol/kg i.d. (intraduodenal)
[8] = 30.0 μmol/kg i.d. (intraduodenal)
[9] = dose (interpolated) which reduces the HCl secretion by 50% compared with control group, read-out: Inhibition of acid secretion: Approx. ED50
[10] = dose (interpolated) which reduces the lesion index by 50% compared with control group, read-out: Protective action on stomach: Approx. ED50
[11] = 10.0 μmol/kg i.d. (intraduodenal)
[12] = 0.1 μmol/kg i.d. (intraduodenal)

Structure (SMILES)	Inhibition of acid secretion: Reduction in HCl secretion [1] [%]	Protective action on stomach: Reduction in lesion index [1] [%]	Inhibition of acid secretion: Reduction in HCl secretion [3] [%]	Protective action on stomach: Reduction in lesion index [3] [%]	Inhibition of acid secretion: Reduction in HCl secretion [6] [%]	Protective action on stomach: Reduction in lesion index [6] [%]	Inhibition of acid secretion: Reduction in HCl secretion [8] [%]	Protective action on stomach: Reduction in lesion index [8] [%]	ED50 [9] [µmol/kg]	ED50 [10] [µmol/kg]	Inhibition of acid secretion: Reduction in HCl secretion [11] [%]	Protective action on stomach: Reduction in lesion index [11] [%]	further results
Cc1nc2c(O[C@@H]3c4ccccc4C[C@H]3O)cccn2c1CC#N (relative stereo) [Example 4, 3-cyanomethyl-8-(2-(trans)-hydroxy-2,3-dihydro-1-indenyloxy)-2-methyl-imidazo[1,2-a]pyridine]	-26	18	22	35	63	93	99	100	~1.95	~1.04	–	–	Inhibition of acid secretion: Reduction in HCl secretion [2]: 12%; Protective action on stomach: Reduction in lesion index [2]: 33%; Inhibition of acid secretion: Reduction in HCl secretion [4]: 50%; Protective action on stomach: Reduction in lesion index [4]: 94%; Inhibition of acid secretion: Reduction in HCl secretion [5]: 51%; Protective action on stomach: Reduction in lesion index [5]: 98%; Inhibition of acid secretion: Reduction in HCl secretion [7]: 73%; Protective action on stomach: Reduction in lesion index [7]: 100%
Cc1nc2c(O[C@@H]3c4ccccc4C[C@H]3O)cccn2c1N.Cl (relative stereo) [Example 11, 3-amino-8-(2-(trans)-hydroxy-2,3-dihydro-1-indenyloxy)-2-methyl-imidazo[1,2-a]pyridine-hydrochloride]	–	–	16	27	32	71	–	–	~6.02	~1.69	67	100	–
Cc1nc2c(O[C@@H]3c4ccccc4C[C@H]3O)cccn2c1CO (relative stereo) [Example 8, 3-hydroxymethyl-8-(2-(trans)-hydroxy-2,3-dihydro-1-indenyloxy)-2-methyl-imidazo[1,2-a]pyridine]	19	43	25	47	20	74	98	100	~12.9	~0.69	35	94	Inhibition of acid secretion: Reduction in HCl secretion [12]: 10%; Protective action on stomach: Reduction in lesion index [12]: 13%
Cc1nc2c(O[C@@H]3c4ccc(F)cc4C[C@H]3O)cccn2c1CO (relative stereo) [Example 30, 8-(5-fluoro-2-(trans)-hydroxy-2,3-dihydro-1-indenyloxy)-3-hydroxymethyl-2-methyl-imidazo[1,2-a]pyridine]	–	–	–	–	41	86	–	–	–	–	–	–	–
Cc1nc2c(O[C@@H]3c4ccccc4C[C@H]3O)cccn2c1C (relative stereo) [Example 2]	-20	25	23	47	52	81	95	100	~4.27	~0.84	47	94	–
